Molecular target: T1, human T1R2/T1R3 taste receptor (Homo sapiens, UniProt Q7RTX0+Q8TE23)
T1 construct: the cDNA for the receptors ht1R2 and ht1R3 and the cDNA for the blasticidin S deaminase gene have been cloned; expressed in transfected cells; host or cells: HEK293 cell line stably expressing mouse G-alpha-15, stably transfected with the tricistronic vector pTrix-Eb-R2R3 and selected with blasticidin
T1 sequence (Q8TE23 20-839): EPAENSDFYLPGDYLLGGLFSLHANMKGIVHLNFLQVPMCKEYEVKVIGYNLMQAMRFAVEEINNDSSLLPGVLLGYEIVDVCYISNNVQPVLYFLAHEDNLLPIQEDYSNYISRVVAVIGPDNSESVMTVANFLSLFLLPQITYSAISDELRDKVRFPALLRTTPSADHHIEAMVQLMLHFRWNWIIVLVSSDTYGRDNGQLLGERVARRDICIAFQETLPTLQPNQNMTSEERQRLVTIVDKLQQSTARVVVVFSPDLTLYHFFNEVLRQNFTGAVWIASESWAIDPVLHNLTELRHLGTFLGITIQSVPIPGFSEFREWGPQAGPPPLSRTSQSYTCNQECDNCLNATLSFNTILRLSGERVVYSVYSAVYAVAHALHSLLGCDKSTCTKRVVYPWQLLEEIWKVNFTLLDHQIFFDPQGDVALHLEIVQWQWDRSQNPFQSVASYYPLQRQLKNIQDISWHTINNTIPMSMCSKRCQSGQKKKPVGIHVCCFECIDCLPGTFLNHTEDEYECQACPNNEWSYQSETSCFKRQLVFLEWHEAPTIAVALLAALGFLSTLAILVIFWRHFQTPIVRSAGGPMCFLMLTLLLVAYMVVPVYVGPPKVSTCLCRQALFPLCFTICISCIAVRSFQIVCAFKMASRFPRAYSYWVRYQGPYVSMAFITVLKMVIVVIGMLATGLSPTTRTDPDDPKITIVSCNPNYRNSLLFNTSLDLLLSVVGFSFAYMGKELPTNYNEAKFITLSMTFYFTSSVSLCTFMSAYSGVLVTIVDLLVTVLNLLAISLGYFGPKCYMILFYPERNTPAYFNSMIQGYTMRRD
T1 sequence (Q7RTX0 21-852): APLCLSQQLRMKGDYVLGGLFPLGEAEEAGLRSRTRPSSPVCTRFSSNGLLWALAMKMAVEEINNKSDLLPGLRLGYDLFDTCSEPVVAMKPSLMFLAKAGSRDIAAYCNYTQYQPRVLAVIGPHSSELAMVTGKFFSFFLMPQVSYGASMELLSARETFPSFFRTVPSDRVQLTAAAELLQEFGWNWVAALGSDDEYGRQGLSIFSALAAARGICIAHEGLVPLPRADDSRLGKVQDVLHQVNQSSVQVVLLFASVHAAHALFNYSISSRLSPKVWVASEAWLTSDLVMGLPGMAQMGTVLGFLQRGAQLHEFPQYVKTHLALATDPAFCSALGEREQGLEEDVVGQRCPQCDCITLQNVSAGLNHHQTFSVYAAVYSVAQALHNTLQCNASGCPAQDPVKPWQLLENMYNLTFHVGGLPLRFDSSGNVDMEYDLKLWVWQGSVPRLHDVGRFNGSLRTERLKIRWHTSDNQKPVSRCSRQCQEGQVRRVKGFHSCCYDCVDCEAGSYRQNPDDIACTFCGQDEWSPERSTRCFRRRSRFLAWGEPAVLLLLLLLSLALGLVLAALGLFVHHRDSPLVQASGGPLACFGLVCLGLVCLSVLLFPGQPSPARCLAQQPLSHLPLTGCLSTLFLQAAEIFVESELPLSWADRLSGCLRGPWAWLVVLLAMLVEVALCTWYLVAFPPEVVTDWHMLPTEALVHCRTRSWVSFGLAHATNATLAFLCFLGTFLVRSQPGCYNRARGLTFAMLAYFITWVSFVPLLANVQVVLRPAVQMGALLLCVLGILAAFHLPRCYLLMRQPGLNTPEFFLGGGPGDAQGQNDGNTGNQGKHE
Assay: calcium dependent cell based assay (Fluo-4 AM) in HEK293 cells stably expressing G-alpha-15, human T1R2 and human T1R3
Settings: 30 mM fructose (5.4 g/l), pre-examinations
Protocol: Fluo-4 AM assay with stable HEK293 cells—Stable cells are maintained in DMEM high-glucose medium (Invitrogen) supplemented with 10% fetal bovine serum (Biochrom) and 4 mM L-glutamine (Invitrogen). Cells for calcium imaging are maintained in DMEM low-glucose medium supplemented with 10% FBS and 1× Glutamax-1 (Invitrogen) for 48 hours before seeding. These stable cells are trypsinised after 48 hours (either with Trypsin-EDTA, Accutase or TrypLE) and seeded onto poly-D-lysine coated 96-well assay plates (Corning) at a density of 45,000 cells/well in DMEM low-glucose medium supplemented with 10% FBS and 1× Glutamax-1.
After 24 hours, the cells were loaded in 100 μl medium with additional 100 μl of 4 μM Fluo-4 (calcium sensing dye, 2 μM end concentration; Molecular Probes) in Krebs-HEPES (KH)-buffer for 1 hour. The loading reagent is then replaced by 200 μl KH-buffer per well. […]
The dye-loaded stable cells in plates were placed into a fluorescence microtiter plate reader to monitor fluorescence (excitation 488 nm, emission 520 nm) change after the addition of 50 μl KH-buffer supplemented with 5× tastants. […]
Calcium mobilization was quantified as the change of peak fluorescence (ΔF) over the baseline level (F0). Data were expressed as the mean S.E. of the (ΔF/F0) value of replicated independent samples. The analysis was done with the software of the microtiter plate reader. […]

## O=C(CO)[C@@H](O)[C@H](O)[C@H](O)CO [fructose]
  activation of the sweet taste receptors: barely activating
